Data taken from patent publication US9868698B2, “(2S,4R)-5-(5′-chloro-2′-fluorobiphenyl-4-yl)-4-(ethoxyoxalylamino)-2-hydroxymethyl-2-methylpentanoic acid” (THERAVANCE BIOPHARMA R&D IP, LLC, priority 2015, dated 2018).

Assays:
Rat NEP = biological target: T1, Rat NEP (Rattus norvegicus, UniProt P07861); test: In vitro enzyme inhibition assay, rat NEP (Assay 1); type: biochemical; details: NEP from rat kidneys; read-out: rat pKi (converted)
T1 construct: leaving a viscous oily precipitate containing the enriched membrane fraction; from tissue; host or cells: kidneys of adult Sprague Dawley rats (Triton X-114 enriched membrane fraction)
T1 sequence (P07861 1-750): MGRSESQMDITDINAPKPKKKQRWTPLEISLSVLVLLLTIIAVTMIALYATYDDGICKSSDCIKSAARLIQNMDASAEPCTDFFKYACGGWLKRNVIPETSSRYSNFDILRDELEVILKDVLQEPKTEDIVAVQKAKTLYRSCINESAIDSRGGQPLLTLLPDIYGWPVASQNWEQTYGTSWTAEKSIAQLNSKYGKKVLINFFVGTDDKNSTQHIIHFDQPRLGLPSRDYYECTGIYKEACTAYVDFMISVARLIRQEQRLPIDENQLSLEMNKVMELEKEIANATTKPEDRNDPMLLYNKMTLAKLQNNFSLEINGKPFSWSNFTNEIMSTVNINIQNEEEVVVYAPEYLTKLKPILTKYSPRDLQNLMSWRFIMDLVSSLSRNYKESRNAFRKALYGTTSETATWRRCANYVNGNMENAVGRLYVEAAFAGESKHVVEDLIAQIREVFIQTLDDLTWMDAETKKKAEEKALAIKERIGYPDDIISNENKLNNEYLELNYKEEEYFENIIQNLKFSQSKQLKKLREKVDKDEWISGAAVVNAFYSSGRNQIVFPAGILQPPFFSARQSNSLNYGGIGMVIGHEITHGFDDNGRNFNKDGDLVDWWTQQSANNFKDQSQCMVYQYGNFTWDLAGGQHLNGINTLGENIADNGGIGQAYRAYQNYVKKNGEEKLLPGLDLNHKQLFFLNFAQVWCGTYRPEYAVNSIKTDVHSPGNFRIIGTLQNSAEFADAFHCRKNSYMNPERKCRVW
Method: (§1) The inhibitory activities at human and rat neprilysin (EC 3.4.24.11; NEP) were determined using in vitro assays as described below.
Rat NEP was prepared from the kidneys of adult Sprague Dawley rats. Whole kidneys were washed in cold phosphate buffered saline (PBS) and brought up in ice-cold lysis buffer (1% Triton X-114, 150 mM NaCl, 50 mM tris(hydroxymethyl) aminomethane (Tris) pH 7.5; Bordier (1981) J. Biol. Chem. 256: 1604-1607) in a ratio of 5 mL of buffer for every gram of kidney. Samples were homogenized on ice using a polytron hand held tissue grinder. Homogenates were centrifuged at 1000×g in a swinging bucket rotor for 5 minutes at 3° C. The pellet was resuspended in 20 mL of ice cold lysis buffer and incubated on ice for 30 minutes. Samples (15-20 mL) were then layered onto 25 mL of ice-cold cushion buffer (6% w/v sucrose, 50 mM pH 7.5 Tris, 150 mM NaCl, 0.06%, Triton X-114), heated to 37° C. for 3-5 minutes and centrifuged at 1000×g in a swinging bucket rotor at room temperature for 3 minutes. The two upper layers were aspirated off, leaving a viscous oily precipitate containing the enriched membrane fraction. Glycerol was added to a concentration of 50% and samples were stored at −20° C. Protein concentrations were quantitated using a BCA detection system with bovine serum albumin (BSA) as a standard.
(§2) The assays were performed in 384-well white opaque plates at 37° C. using the fluorogenic peptide substrate at a concentration of 10 μM in Assay Buffer (50 mM HEPES, pH 7.5, 100 mM NaCl, 0.01% polyethylene glycol sorbitan monolaurate (Tween-20), 10 μM ZnSO4).
(§3) Test compounds were assayed over the range of concentrations from 10 μM to 20 pM. Test compounds were added to the enzyme and incubated for 30 minute at 37° C. prior to initiating the reaction by the addition of substrate. Reactions were terminated after 20 minutes of incubation at 37° C. by the addition of glacial acetic acid to a final concentration of 3.6% (v/v).
(§4) Plates were read on a fluorometer with excitation and emission wavelengths set to 320 nm and 405 nm, respectively. Inhibition constants were obtained by nonlinear regression of the data using the equation (GraphPad Software, Inc., San Diego, Calif.): v=v0/[1+(I/K′)] where v is the reaction rate, v0 is the uninhibited reaction rate, I is the inhibitor concentration and K′ is the apparent inhibition constant.

NEP [1] = biological target: T2, NEP (Homo sapiens, UniProt P08473); test: In vitro enzyme inhibition assay, human NEP (Assay 1); type: biochemical; design: purchased R&D Systems 1182-ZN; details: read-out: human pKi (converted)
Method: as §1
Target sequence in this assay (P08473 52-750 limits assumed): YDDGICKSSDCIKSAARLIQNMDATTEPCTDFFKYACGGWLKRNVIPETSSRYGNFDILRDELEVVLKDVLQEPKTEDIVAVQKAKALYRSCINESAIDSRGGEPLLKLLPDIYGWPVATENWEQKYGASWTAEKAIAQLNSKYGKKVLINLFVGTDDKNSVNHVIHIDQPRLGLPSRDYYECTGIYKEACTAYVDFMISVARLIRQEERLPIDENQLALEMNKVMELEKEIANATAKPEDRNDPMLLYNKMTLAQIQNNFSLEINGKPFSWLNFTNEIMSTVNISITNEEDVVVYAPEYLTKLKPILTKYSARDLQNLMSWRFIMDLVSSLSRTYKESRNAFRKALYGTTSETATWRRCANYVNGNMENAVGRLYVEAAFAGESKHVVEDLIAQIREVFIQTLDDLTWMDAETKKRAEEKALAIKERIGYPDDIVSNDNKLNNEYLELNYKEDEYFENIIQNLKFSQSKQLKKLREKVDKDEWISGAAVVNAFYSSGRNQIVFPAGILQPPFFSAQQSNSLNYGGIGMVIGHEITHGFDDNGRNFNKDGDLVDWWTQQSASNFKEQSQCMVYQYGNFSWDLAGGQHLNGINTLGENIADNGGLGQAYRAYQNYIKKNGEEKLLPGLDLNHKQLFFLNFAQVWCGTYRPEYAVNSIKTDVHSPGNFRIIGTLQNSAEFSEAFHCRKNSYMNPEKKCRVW
Recombinant human NEP was obtained commercially (R&D Systems, Minneapolis, Minn., catalog number 1182-ZN). The fluorogenic peptide substrate Mca-D-Arg-Arg-Leu-Dap-(Dnp)-OH (Medeiros et al. (1997) Braz. J. Med. Biol. Res. 30:1157-62; Anaspec, San Jose, Calif.) was used.
as §2, §3, §4

NEP [2] = biological target: T2, NEP; details: reported in U.S. Patent Application Publication No. 2013/0109639; cited from earlier work
Target sequence in this assay (P08473 whole entry): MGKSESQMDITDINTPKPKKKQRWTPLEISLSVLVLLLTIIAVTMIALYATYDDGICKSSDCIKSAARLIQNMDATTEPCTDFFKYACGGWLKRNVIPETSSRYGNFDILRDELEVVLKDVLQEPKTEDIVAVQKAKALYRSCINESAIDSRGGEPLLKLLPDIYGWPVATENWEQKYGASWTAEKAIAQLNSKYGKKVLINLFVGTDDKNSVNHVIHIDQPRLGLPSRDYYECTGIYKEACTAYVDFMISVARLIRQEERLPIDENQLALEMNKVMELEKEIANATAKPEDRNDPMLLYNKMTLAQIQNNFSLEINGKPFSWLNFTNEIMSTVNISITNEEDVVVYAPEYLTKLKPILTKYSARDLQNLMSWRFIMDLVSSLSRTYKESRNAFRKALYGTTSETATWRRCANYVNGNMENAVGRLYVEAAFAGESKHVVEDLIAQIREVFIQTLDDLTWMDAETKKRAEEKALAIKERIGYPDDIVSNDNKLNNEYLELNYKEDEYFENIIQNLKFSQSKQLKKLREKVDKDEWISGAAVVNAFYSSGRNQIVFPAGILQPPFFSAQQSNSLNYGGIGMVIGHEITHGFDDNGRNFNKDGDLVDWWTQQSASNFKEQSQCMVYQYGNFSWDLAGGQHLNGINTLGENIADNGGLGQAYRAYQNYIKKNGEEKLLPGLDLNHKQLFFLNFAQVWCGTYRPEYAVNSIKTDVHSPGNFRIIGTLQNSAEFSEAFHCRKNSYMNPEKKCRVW

[3] = IV/PO pharmacokinetic study in rats (Assay 3); type: in vivo; details: male, Sprague-Dawley, plasma; rat, IV; analyte = compound dosed (active metabolite); read-out: AUClast Mean
Method: (§5) Each rat or dog pharmacokinetic study began with formulation of the test compound. Appropriate masses of each test compound were added into a volume of vehicle (e.g. 5% sodium bicarbonate, 5% dextrose in water) such that the final concentration of each compound was appropriate to be dosed at 2 mL/kg. Although a homogenous suspension were acceptable for oral dosing, intravenous dosing solutions were sterile-filtered (0.2 μm) prior to dosing to ensure no particulates were administered.
In the rat study, pre-cannulated male Sprague-Dawley rats (3 per route) between 8 and 10 weeks of age were obtained from Harlan Laboratories (Indianapolis, Ind.). Rats received either a single oral gavage or a single intravenous (via lateral tail vein) dose of the dosing solution. The final dose was typically 0.5-3 mg/kg. Serial blood samples were harvested via the cannula implanted in the jugular vein at 3 minutes, 15 minutes, 30 minutes, 1 hour, 2 hours, 4 hours, 6 hours, and 24 hours post-dose. Sampling was performed either manually or using automated blood samplers. Samples were collected into microtainer tubes containing sodium fluoride, potassium oxalate and paraoxon, and were processed to plasma by refrigerated centrifugation.
(§6) Plasma samples were extracted with 3 volumes of MeCN containing a suitable internal standard. Extracts were reconstituted into 3 volumes of water containing 1% formic acid, and analyzed via HPLC-coupled MS/MS. Plasma concentration-time data were analyzed using the Phoenix software (Pharsight Corp., St. Louis, Mo.) to calculate pharmacokinetic parameters.

[4] = IV/PO pharmacokinetic study in dogs (Assay 3); type: in vivo; details: male, beagle, plasma, dog, read-out: AUClast Mean
Method: as §5
In the dog study, male beagle dogs (3 per route) housed at Agilux Laboratories (Worcester, Mass.) and weighing between 7-12 kg received either a single oral gavage or a single intravenous (via indwelling catheter) dose of the dosing solution. The final dose was typically 0.1-2 mg/kg. Serial blood samples were harvested via direct venipuncture at 3 minutes, 15 minutes, 30 minutes, 1 hour, 2 hours, 4 hours, 6 hours, 8 hours, 12 hours, and 24 hours post-dose. All samples were collected manually into microtainer tubes containing sodium fluoride, potassium oxalate and paraoxon, and were processed to plasma by refrigerated centrifugation.
as §6

[5] = Renal excretion in male beagle dogs (Assay 4); type: in vivo; details: dog, IV 1.0 mg/kg
Method: An important factor for insuring appropriate long term drug dosing and correct steady-state drug concentrations in patients is drug clearance. In general, decreased drug clearance results in higher drug concentrations and greater drug effects.
Male beagle dogs (N=3), having body weights of 9.58-10.42 kg, received an IV dose of 1.0 mg/kg of Compound 1. Compound 1 was formulated in 5% NaHCO3 in D5W. The dogs were fasted overnight and pretreated with pentagastrin (60 μg/mL, 0.1 mL/kg, IM) approximately 30 minutes prior to dose administration to stimulate gastric secretion. Food was returned approximately 4 hours postdose. Urine samples were collected surrounded by cold ice packs during the collection period. After 24 hours, the sample weight was recorded, the sample was thoroughly mixed, and aliquots were obtained and frozen (−80° C.) prior to bioanalysis.
Dog urine concentrations of Compound 1 were determined by LC/MS/MS. Urine study samples (diluted in plasma) were vortexed and 50 μL was placed in a 96-well plate. The samples were extracted with acetonitrile with internal standard chrysin. The extract was centrifuged and supernatant was transferred to a new 96-well plate and diluted 1 part sampe in 4 parts water with 0.2% formic acid. Samples (12 μL) were injected on a Waters Acquity UPLC BEH C18 (50×2.1 mm, 1.7 μm) column with a flow rate of 0.9 mL/min. […]

[6] = Exposure of crystals to ambient conditions; type: physicochemical

| AUC(0-t) [3] | AUC(0-t) ([4]; IV, analyte = compound dosed (active metabolite)) | SMILES | Ki (Rat NEP) | Ki (NEP [1]) | pKi at NEP (NEP [2]) | Amount of Compound 1 Excreted in Urine over Collection Period (0-24 hrs) Mean [5] | Urinary Excretion (approximate % of administred dose excreted in urine) Mean ([5]; 0-24 hrs, 1 mg/kg) | AUC(0-t) ([4]; PO, analyte = compound dosed (prodrug)) | behaviour of crystals at ambient conditions (in words) [6] |
| --- | --- | --- | --- | --- | --- | --- | --- | --- | --- |
| 16000 ng·h/mL | 1970 ng·h/mL | C[C@@](CO)(C[C@@H](Cc1ccc(-c2cc(Cl)ccc2F)cc1)NC(=O)C(=O)O)C(=O)O [Comparison Compound C2, (2S,4R)-5-(5′-Chloro-2′-fluorobiphenyl-4-yl)-2-hydroxymethyl-2-methyl-4-(oxalylamino)pentanoic Acid] | 0.316 nM | 0.631 nM | ≥ 9 |  |  |  |  |
|  |  | CCOC(=O)C(=O)N[C@H](Cc1ccc(-c2cc(Cl)ccc2F)cc1)C[C@@](C)(CO)C(=O)O [Compound 1, (2S,4R)-5-(5′-Chloro-2′-fluorobiphenyl-4-yl)-4-(ethoxyoxalylamino)-2-hydroxymethyl-2-methylpentanoic Acid] | 0.794 nM | 0.794 nM |  | 28.9 µg | 0.284% | 3.7 ng·h/mL |  |
|  |  | CCOC(=O)C(=O)N[C@H](Cc1ccc(-c2cc(Cl)ccc2F)cc1)C[C@@](C)(CO)C(=O)O [Compound 1″, L-Arginine (2S,4R)-5-(5′-Chloro-2′-fluoro-[1,1′-bipheny]-4-yl)-4-(2-ethoxy-2-oxoacetamido)-2-(hydroxymethyl)-2-methylpentanoate] |  |  |  |  |  |  | slow deliquescence |
